Twelve compounds from US6440710B1, “Antibody-catalyzed deuteration, tritiation, dedeuteration or detritiation of carbonyl compounds” (The Scripps Research Institute, priority 1998, dated 2002) can be followed below.

This experiment has as its system antibody 38C2. Kind of experiment: antibody 38C2-catalyzed deuterium exchange (deuteration) of ketones and aldehydes in D2O, kinetics by GCMS or 1H-NMR. Type of experiment: biochemical. Conditions: for Km / kcat: 38C2-catalyzed deuteration, D2O, pD 7.4, 25° C.; for Km: Lineweaver-Burk analysis (GCMS); for kcat: per exchange of one hydrogen atom; for kcat/kun: rate enhancement over uncatalyzed background reaction (followed 5 months at 25° C.). Here is the method:
Series of reactions were carried out in a 0.1 ml solution containing the appropriate concentration of the carbonyl substrate and antibody 38C2(1.33 μM in the case of cycloheptanone and heptanal, 2.67 μM in the case of 2-heptanone) which was previously dialyzed three times against 0.1 M NaCl in D2O. The reaction mixtures were kept at 25° C. for 10 minutes and then quenched with dichloromethane. The organic layer was separated and analyzed by GCMS (Chemical Ionization) where the different isotopic masses were monitored and integrated. All kinetic parameters are calculated per exchange of one deuterium atom. No background reactions could be detected under these conditions.
The issue of kinetic analyses of these catalytic reactions and structure determination of the deuterium labeled products is not trivial. The common chromatographic methods, such as HPLC, used to monitor protein-catalyzed organic reactions that are carried out at very low concentrations, are not applicable to isotope exchange reactions. Work at low concentrations, at the range of the antibody's Km, is required in order to establish the kinetic parameters of the antibody catalyzed reaction. Consequently, alternative methods such as mass spectrometry and NMR are required. For NMR spectroscopy, deuterated substrates were used and the exchange of ^2H and ^1H was followed by ^1H-NMR. This allows for monitoring the reaction in real time in the presence of antibody and buffer solution. The experiments were carried out in relatively high substrate concentrations, due to the limited sensitivity of the instrument. Most experiments employed deuterated acetonitrile as an internal standard that enables one to quantify the results. It will be appreciated that the employment of NMR techniques is valuable not only for kinetic studies but also for determining the product's stereochemistry as well as the regio, chemo- and enantioselectivity of the reaction.
All reactions were carried out in D2O under neutral conditions (pD 7.4) in the presence of catalytic amounts of the commercially available 38C2 antibody.
The exchange reaction was followed either by mass spectrometry (GCMS.) or by ^1H-NMR. The high sensitivity of the GCMS method with respect to substrate concentration allowed for determination of the kinetic parameters of these reactions (Km and kcat) using Lineweaver-Burk analysis. These measurements are presented in Table 1 hereinunder and FIG. 5.
Although all NMR measurements were carried out under substrate saturation conditions (allowing only for determination of Vmax and kcat, Table 1, above), as further detailed hereinunder, this method provided useful information about the regioselectivity of the reaction in the cases of non-symmetrical ketones and chemoselectivity with polyfunctional carbonyl compounds.
14. The rate of the uncatalyzed reaction was determined by averaging the results of five experiments for each substrate. All reaction mixtures, containing the appropriate substrate (200 μM) and NaCl (0.1 M) in D2O (0.1 mL), were monitored by GCMS-CI. Approximately 1-2% yield was observed after 5 months at 25° C.

As a reminder, the Km is the concentration of substrate that gives half-maximal velocity. Broadly, the kcat is the number of substrate molecules converted per active site and unit of time at saturation. For the compound `CCCCCC(C)=O` [2-Heptanone, 3, 2-Heptanone], the Km came out at 16 mM, the kcat is 0.0583 s⁻¹ and the kcat/kun is listed as 6.94 × 10^7.

Regarding `CC(=O)C(C)(C)C` [3,3-dimethylbutan-2-one], the “reactivity in the 38C2-catalyzed deuterium exchange reaction” value (data not shown) is recorded as “absolute inertness”.

`CC(C)=O` [Acetone, 1, Acetone]: the catalytic constant (kcat) was 0.0433 s⁻¹.

For `CCC(C)=O` [Butanone, 2, Butanone], the kcat worked out at 0.0517 s⁻¹.

Turning to `O=C1CCCCCC1` [Cycloheptanone, 10, Cycloheptanone], the Km was found to be 4.6 mM, the kcat was determined as 0.232 s⁻¹ and the kcat/kun was 1.1 × 10^8.

Consider `O=C1CCCCC1` [Cyclohexanone, 9, Cyclohexanone], for which the Michaelis constant (Km) turned out to be 5.2 mM, the kcat stood at 3.233 s⁻¹ and the kcat/kun is recorded as 5.9 × 10^8.

In the case of `O=C1CCCC1` [Cyclopentanone, 8, Cyclopentanone], the kcat was determined as 0.102 s⁻¹.

Turning to `CCCCCCCCCC=O` [Decanal, 6, Decanal], the Km worked out at 0.68 mM and the kcat amounted to 0.0667 s⁻¹.

Turning to `CCOC(=O)CCCC(C)=O` [Ethyl 5-oxohexanoate, 7, Ethyl 5-oxohexanoate], the kcat turned out to be 0.013 s⁻¹.

On to `CCCCCCC=O` [Heptanal, 5, Heptanal], for which the Km stood at 3.5 mM and the kcat was found to be 0.753 s⁻¹.

In the case of `CCCCC=O` [Valeraldehyde, 4, Valeraldehyde], the turnover number (kcat) was found to be 0.0567 s⁻¹.

In the case of `CC(=O)CC(C)=O` [acetylacetone, reference compound], the “inhibition of the 38C2-catalyzed deuterium exchange reaction” value (all cases studied by GCMS) is listed as “effectively inhibited”.
